Data from patent US20180305332A1, “Bispiperidinyl Derivatives as Liver X Receptor Beta Agonists, Compositions, and Their Use” (Merck Sharp & Dohme Corp., priority 2015, published 2018).

Assays:
[1] = molecular target: T1, GST tagged LXRbeta LBD (ligand binding domain) (Homo sapiens, UniProt P55055); experiment: LanthaScreen TR-FRET Liver X Receptor Coactivator Assay, LXR beta-LBD; type: biochemical; details: relative to reference T0901317; for EC50: Inflection Point (potency), co-activator recruitment, read-out: LXR beta IP; for Emax: read-out: LXR beta act @ max dose (%)
T1 construct: purchased Invitrogen pv4658.pps
T1 sequence (P55055 222-460 limits assumed): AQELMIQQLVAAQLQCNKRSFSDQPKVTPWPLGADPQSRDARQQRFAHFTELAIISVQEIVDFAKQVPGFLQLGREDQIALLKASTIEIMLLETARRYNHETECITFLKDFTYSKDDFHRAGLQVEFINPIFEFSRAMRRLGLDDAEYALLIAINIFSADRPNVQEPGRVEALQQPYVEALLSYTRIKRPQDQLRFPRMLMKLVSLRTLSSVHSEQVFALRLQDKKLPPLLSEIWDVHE
Method: (§1) Potency (Inflection Point, IP) and efficacy (Emax) are evaluated via compound-induced co-activator recruitment to glutathione-S-transferase (GST) tagged LXRbeta and LXRalpha LBD (ligand binding domain) proteins in relation to reference dual agonist compound T0901317 (N-(2,2,2-Trifluoroethyl)-N-[4-[2,2,2-trifluoro-1-hydroxy-1-(trifluoromethyl)ethyl] phenyl]benzenesulfonamide) using the LanthaScreen™ TR-FRET Liver X Receptor Coactivator Assays according to manufacturer's instructions (Invitrogen catalog number pv4658.pps and pv4655). While running the LanthaScreen™ TR-FRET Liver X Receptor Coactivator Assay, LXR alpha-LBD or LXR beta-LBD was added to ligand test compounds followed by addition of a mixture of a fluorescein-labelled coactivator peptide and terbium-conjugated anti-GST antibody. After an incubation period at room temperature, TR-FRET (time-resolved fluorescence resonance energy transfer) was measured using a filter-based instrument capable of TR-FRET, e.g. PerkinElmer Envision.

[2] = molecular target: T2, GST tagged LXRalpha LBD (ligand binding domain) (Homo sapiens, UniProt Q13133); experiment: LanthaScreen TR-FRET Liver X Receptor Coactivator Assay, LXR alpha-LBD; type: biochemical; details: relative to reference T0901317; for EC50: read-out: LXR alpha IP; for Emax: read-out: LXR alpha act @ max dose (%)
T2 construct: purchased Invitrogen pv4655
T2 sequence (Q13133 209-447 limits assumed): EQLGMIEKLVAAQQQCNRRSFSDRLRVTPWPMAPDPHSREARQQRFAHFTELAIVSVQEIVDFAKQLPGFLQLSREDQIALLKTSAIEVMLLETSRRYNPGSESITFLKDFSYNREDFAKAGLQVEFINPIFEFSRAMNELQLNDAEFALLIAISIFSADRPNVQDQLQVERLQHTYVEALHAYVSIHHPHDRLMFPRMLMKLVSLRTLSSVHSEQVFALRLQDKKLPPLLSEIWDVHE
Method: as §1

[3] = activity at max dose (efficacy)
[4] = Inflection Point (potency), co-activator recruitment

EC50 [1]	Emax [1, 3]	EC50 [2, 4]	Emax [2, 3]	LXR beta act @ max dose (%) [1, 3]	LXR alpha act @ max dose (%) [2, 3]	LXR alpha IP (nM) [2, 4]	SMILES
11 nM	108%	577 nM	53%	–	–	–	CN(C)C(=O)c1ccc(N2CCC(C3CCN(C(=O)C4(c5ccccc5F)CCCC4)CC3)CC2)cc1Cl [Example A-45, 2-chloro-4-(1′-{[1-(2-fluorophenyl)cyclopentyl]carbonyl}-4,4′-bipiperidin-1-yl)-N,N-dimethylbenzamide]
14 nM	109%	861 nM	33%	–	–	–	CN(C)C(=O)c1ccc(N2CCC(C3CCN(C(=O)C(C)(c4ccccc4)C(F)(F)F)CC3)CC2)cc1Cl (stereo not shown) [Example A-16, 2-chloro-N,N-dimethyl-4-[1′-(3,3,3-trifluoro-2-methyl-2-phenylpropanoyl)-4,4′-bipiperidin-1-yl]benzamide]
30 nM	109%	756 nM	59%	–	–	–	CN(C)C(=O)c1ccc(N2CCC(C3CCN(C(=O)C(O)(C4CCC4)C(F)(F)F)CC3)CC2)cc1Cl (stereo not shown) [Example A-10, 2-chloro-4-[1′-(2-cyclobutyl-3,3,3-trifluoro-2-hydroxypropanoyl)-4,4′-bipiperidin-1-yl]-N,N-dimethylbenzamide]
114 nM	100%	2430 nM	37%	–	–	–	COc1ccccc1C(O)(C(=O)N1CCC(C2CCN(c3ccc(C(=O)N(C)C)c(Cl)c3)CC2)CC1)C(F)(F)F (stereo not shown) [Example A-97, 2-chloro-N,N-dimethyl-4-{1′-[3,3,3-trifluoro-2-hydroxy-2-(2-methoxyphenyl)propanoyl]-4,4′-bipiperidin-1-yl}benzamide]
89 nM	107%	4850 nM	31%	–	–	–	CN(C)C(=O)c1ccc(N2CCC(C3CCN(C(=O)c4c(F)cccc4Cl)CC3)CC2)cc1Cl [Example A-24, 2-chloro-4-{1′-[(2-chloro-6-fluorophenyl)carbonyl]-4,4′-bipiperidin-1-yl}-N,N-dimethylbenzamide]
274 nM	93%	4100 nM	35%	–	–	–	CN(C)C(=O)c1ccc(N2CCC(C3CCN(C(=O)c4c(F)cc(F)cc4F)CC3)CC2)cc1Cl [Example A-37, 2-chloro-N,N-dimethyl-4-{1′-[(2,4,6-trifluorophenyl)carbonyl]-4,4′-bipiperidin-1-yl}benzamide]
93 nM	99%	1010 nM	20%	–	–	–	CN(C)C(=O)c1ccc(N2CCC(C3CCN(C(=O)C(O)(c4cccc(Cl)c4)C(F)(F)F)CC3)CC2)cc1Cl (stereo not shown) [Example A-50, 2-chloro-4-{1′-[2-(3-chlorophenyl)-3,3,3-trifluoro-2-hydroxypropanoyl]-4,4′-bipiperidin-1-yl}-N,N-dimethylbenzamide]
374 nM	87%	2000 nM	31%	–	–	–	CN(C)C(=O)c1ccc(N2CCC(C3CCN(C(=O)C4(c5cc(F)ccc5F)CCC4)CC3)CC2)cc1Cl [Example A-76, 2-chloro-4-(1′-{[1-(2,5-difluorophenyl)cyclobutyl]carbonyl}-4,4′-bipiperidin-1-yl)-N,N-dimethylbenzamide]
218 nM	114%	2880 nM	52%	–	–	–	CN(C)C(=O)c1ccc(N2CCC(C3CCN(C(=O)C(F)(F)c4ccc(F)cc4)CC3)CC2)cc1Cl [Example A-63, 2-chloro-4-{1′-[difluoro(4-fluorophenyl)acetyl]-4,4′-bipiperidin-1-yl}-N,N-dimethylbenzamide]
314 nM	93%	3130 nM	31%	–	–	–	CN(C)C(=O)c1ccc(N2CCC(C3CCN(C(=O)C45CC(C4)C5)CC3)CC2)cc1Cl [Example A-15, 4-[1′-(bicyclo[1.1.1]pent-1-ylcarbonyl)-4,4′-bipiperidin-1-yl]-2-chloro-N,N-dimethylbenzamide]
171 nM	100%	2270 nM	22%	–	–	–	COc1cccc(C2(C(=O)N3CCC(C4CCN(c5ccc(C(=O)N(C)C)c(Cl)c5)CC4)CC3)CCC2)c1 [Example A-93, 2-chloro-4-(1′-{[1-(3-methoxyphenyl)cyclobutyl]carbonyl}-4,4′-bipiperidin-1-yl)-N,N-dimethylbenzamide]
119 nM	100%	2120 nM	19%	–	–	–	COc1cccc([C@@](O)(C(=O)N2CCC(C3CCN(c4ccc(C(=O)N(C)C)c(Cl)c4)CC3)CC2)C(F)(F)F)c1 (single isomer, unassigned) [Example A-65]

The next lines start with the molecule.

SMILES	EC50 [1]	Emax [1, 3]	EC50 [2, 4]	Emax [2, 3]	LXR beta act @ max dose (%) [1, 3]	LXR alpha act @ max dose (%) [2, 3]	LXR alpha IP (nM) [2, 4]
CN(C)C(=O)c1ccc(N2CCC(C3CCN(S(=O)(=O)c4ccccc4Cl)CC3)CC2)cc1Cl [Example A-103, 2-chloro-4-{1′-[(2-chlorophenyl)sulfonyl]-4,4′-bipiperidin-1-yl}-N,N-dimethylbenzamide]	16 nM	122%	2190 nM	54%	–	–	–
CN(C)C(=O)c1ccc(N2CCC(C3CCN(C(=O)C(O)(C4CC4)C(F)(F)F)CC3)CC2)cc1Cl (single isomer, unassigned) [Example A-9, 2-chloro-4-[1′-(2-cyclopropyl-3,3,3-trifluoro-2-hydroxypropanoyl)-4,4′-bipiperidin-1-yl]-N,N-dimethylbenzamide]	116 nM	–	1200 nM	–	110%	56%	–
CC(C)C(O)(C(=O)N1CCC(C2CCN(c3ccc(C(=O)N4CCOCC4)c(Cl)c3)CC2)CC1)C(F)(F)F (stereo not shown) [Example E-8, 2-({1′-[3-chloro-4-(morpholin-4-ylcarbonyl)phenyl]-4,4′-bipiperidin-1-yl}carbonyl)-1,1,1-trifluoro-3-methylbutan-2-ol]	149 nM	65%	1190 nM	29%	–	–	–
CC(C)(C(=O)N1CCC(C2CCN(c3ccc(C(=O)N4CCCC4)c(Cl)c3)CC2)CC1)c1ccccc1 [Example E-18, 1-[3-chloro-4-(pyrrolidin-1-ylcarbonyl)phenyl]-1′-(2-methyl-2-phenylpropanoyl)-4,4′-bipiperidine]	73 nM	99%	1280 nM	52%	–	–	–
CN(C)C(=O)c1ccc(N2CCC(C3CCN(C(=O)C(O)(c4ccccc4)C(F)(F)F)CC3)CC2)nc1Cl (stereo not shown) [Example B-13, 2-chloro-N,N-dimethyl-6-[1′-(3,3,3-trifluoro-2-hydroxy-2-phenylpropanoyl)-4,4′-bipiperidin-1-yl]pyridine-3-carboxamide]	291 nM	95%	–	28%	–	–	NO IP
CN(C)C(=O)c1c(Cl)cc(N2CCC(C3CCN(C(=O)[C@](O)(c4ccccc4)C(F)(F)F)CC3)CC2)cc1Cl [Example A-33, 2,6-dichloro-N,N-dimethyl-4-{1′-[(2R)-3,3,3-trifluoro-2-hydroxy-2-phenylpropanoyl]-4,4′-bipiperidin-1-yl}benzamide]	48 nM	86%	483 nM	25%	–	–	–
CC(C)[C@@](O)(C(=O)N1CCC(C2CCN(c3ccc(C(=O)N(C)C)c(Cl)c3)CC2)CC1)C(F)(F)F (single isomer, unassigned) [Example A-2]	35 nM	100%	1030 nM	41%	–	–	–
CC(C)[C@](O)(C(=O)N1CCC(C2CCN(c3ccc(C(=O)N(C)C)c(Cl)c3)CC2)CC1)C(F)(F)F (single isomer, unassigned) [Example A-3]	63 nM	103%	3550 nM	36%	–	–	–
C=CCC(O)(C(=O)N1CCC(C2CCN(c3ccc(C(=O)N(C)C)c(Cl)c3)CC2)CC1)C(F)(F)F (stereo not shown) [Example A-57, 2-chloro-4-{1′-[2-hydroxy-2-(trifluoromethyl)pent-4-enoyl]-4,4′-bipiperidin-1-yl}-N,N-dimethylbenzamide]	311 nM	112%	4790 nM	58%	–	–	–
CN(C)C(=O)c1ccc(N2CCC(C3CCN(C(=O)C(O)(C(C)(C)C)C(F)(F)F)CC3)CC2)cc1Cl (single isomer, unassigned) [Example A-6, 2-Chloro-4-(1′-(2-hydroxy-3,3-dimethyl-2-(trifluoromethyl)butanoyl)-[4,4′-bipiperidin]-1-yl)-N,N-dimethylbenzamide]	24 nM	107%	626 nM	70%	–	–	–
